Values after ≈ are worked out from the molar mass of the structure shown. Like-named read-outs stand apart in the source and are kept apart here. Where a SMILES comes first, the peptide text is derived from it.
Legend:
M. tuberculosis = settings: cited from earlier work
[1] = molecular target: extracellular glutamine synthetase (Mycobacterium tuberculosis, UniProt P9WN39); settings: 20 μM; cited from earlier work
[2] = system: poly-L-glutamate/glutamine cell wall structure; settings: 20 μM; cited from earlier work
M. tuberculosis Erdman [3] = assay: Growth of M. tuberculosis Erdman broth cultures (colony forming units); assay type: cell-based
M. smegmatis 1-2c [4] = assay: microbe, parasite or virus in culture; settings: Mycolicibacterium smegmatis, 12C
M. tuberculosis Erdman [5] = assay: microbe, parasite or virus in culture; settings: Mycobacterium tuberculosis
M. smegmatis 1-2c [6] = system: M. smegmatis 1-2c
M. tuberculosis Erdman [7] = system: M. tuberculosis Erdman

extracellular glutamine synthetase, sequence (P9WN39 2-478 limits assumed): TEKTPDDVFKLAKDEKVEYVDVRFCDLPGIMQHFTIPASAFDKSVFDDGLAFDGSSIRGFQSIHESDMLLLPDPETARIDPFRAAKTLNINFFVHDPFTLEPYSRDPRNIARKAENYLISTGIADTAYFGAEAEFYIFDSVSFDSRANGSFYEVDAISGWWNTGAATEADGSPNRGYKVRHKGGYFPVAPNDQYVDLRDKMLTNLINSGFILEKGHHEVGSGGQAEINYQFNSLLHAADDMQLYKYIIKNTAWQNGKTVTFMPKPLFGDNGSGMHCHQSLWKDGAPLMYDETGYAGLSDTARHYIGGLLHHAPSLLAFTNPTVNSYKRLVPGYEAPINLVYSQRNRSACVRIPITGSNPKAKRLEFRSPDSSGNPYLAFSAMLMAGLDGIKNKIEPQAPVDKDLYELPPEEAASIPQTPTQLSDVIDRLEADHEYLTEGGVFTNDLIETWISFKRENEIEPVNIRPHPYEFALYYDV

SMILES: CS(=N)(=O)CC[C@H](N)C(=O)O (stereo partly drawn) [L-methionine-S-sulfoximine]
- inhibition of bacterial growth (M. tuberculosis; 2 μM): 1.5-2 log units
- reduction of bacterial growth (M. tuberculosis; 20 μM): ≥ 2.5 log units
- reduction of extracellular glutamine synthetase activity [1]: 80%
- reduction of the amount of the poly-L-glutamate/glutamine cell wall structure [2]: 93%

SMILES: NCC[C@H](O)C(=O)N[C@@H]1C[C@H](N)[C@@H](O[C@H]2O[C@H](CN)[C@@H](O)[C@H](O)[C@H]2O)[C@H](O)[C@H]1O[C@H]1O[C@H](CO)[C@@H](O)[C@H](N)[C@H]1O [amikacin]
- antibacterial effect of free amikacin (M. tuberculosis Erdman [3]; 1 μM): bacteriostatic
- antibacterial effect of free amikacin (M. tuberculosis Erdman [3]; 5.8 μg per ml (10 μM)): strongly bactericidal

SMILES: CC[C@@H](CO)NCCN[C@@H](CC)CO [ethambutol]
- MIC (M. smegmatis 1-2c [4]): ~0.01 µg/mL (≈ 0.0489 µM)
- MIC (M. tuberculosis Erdman [5]): ~5 µg/mL (≈ 24.5 µM)

SMILES: CC(C)C[C@@H]1NC(=O)[C@@H](Cc2ccccc2)NC(=O)[C@H](CCN)NC(=O)[C@@H](NC(=O)[C@H](CCN)NC(=O)[C@@H](N)[C@@H](C)O)CCNC(=O)[C@H]([C@@H](C)O)NC(=O)[C@H](CCN)NC(=O)[C@H](CCN)NC1=O [polymyxin B nonapeptide] (HELM PEPTIDE1{T.[Dab].[Dab].[Dab].[dF].L.[Dab].[Dab].T}$PEPTIDE1,PEPTIDE1,3:R3-9:R2$$$V2.0; N-terminus assumed)
- MIC (M. smegmatis 1-2c [6]): ~5 µg/mL (≈ 5.19 µM)
- MIC (M. tuberculosis Erdman [7]): ~5 µg/mL (≈ 5.19 µM)
